Results reported in patent US20250228239A1, “MOLECULES HAVING PESTICIDAL UTILITY, AND INTERMEDIATES, COMPOSITIONS, AND PROCESSES, RELATED THERETO” (priority 2024, published 2025).

Tests used:
Type in all cases: in vivo
[1] = test system: Beet Armyworm (Spodoptera exigua, LAPHEG); assay: Bioassays on Beet Armyworm (BAW), 128-well diet tray assay; settings: Spodoptera exigua; Table ABC: Biological Results; species BAW; read-out: BAW
Procedure, shortened: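 Eight diet wells per compound were treated at 50 μg/cm^2 (acetone-water 90:10), dried, then infested with 1–5 second-instar larvae each. After five to seven days at 25 °C under 14:10 photoperiod, mortality was scored and averaged across wells.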

[2] = test system: Yellow Fever Mosquito (Aedes aegypti, AEDSAE); settings: Table ABC: Biological Results; species YFM
Procedure, shortened: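 Mortality after 3 days at room temperature is the read-out, scored well by well and converted to a rating. Test molecules came from 4000 ppm stocks in DMSO, further diluted in 90:10 water/acetone, and were exposed to roughly 1-day-old larvae suspended in liver-powder water.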

[3] = test system: Cabbage Looper (Trichoplusia ni, TRIPNI); assay: Bioassays on Cabbage Looper (CL), 128-well diet tray assay; settings: Trichoplusia ni; Table ABC: Biological Results; species CL; read-out: CL
Procedure, shortened: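 Each of eight wells receives artificial diet treated at 50 μg/cm^2 with the test molecule, then one to five second-instar larvae. Incubation runs five to seven days at 25° C with a 14:10 light-dark cycle under vented covers. Mortality is scored per well as a percentage and averaged.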

| Structure (SMILES) | pest or weed control at 50 µg/cm2 [1] | YFM [2] | pest or weed control at 50 µg/cm2 [3] |
| --- | --- | --- | --- |
| O=C(Nc1ccc(F)cc1F)c1cc(NC(=O)[C@H]2[C@@H](c3cc(F)c(Cl)c(C(F)(F)F)c3)C2(Cl)Cl)ccc1Cl (relative stereo) [F1164, cis-2-Chloro-5-(2,2-dichloro-3-(4-chloro-3-fluoro-5-(trifluoromethyl)phenyl)cyclopropane-1-carboxamido)-N-(2,4-difluorophenyl)benzamide] | 50 to 100% | A (80–100) | 50 to 100% |
| Cc1cc(NCc2ccc([N+](=O)[O-])cc2)ccc1NC(=O)c1cc(NC(=O)[C@H]2[C@H](c3cc(Cl)cc(Cl)c3)C2(Cl)Cl)ccc1Cl (relative stereo) [F1166, trans-2-Chloro-5-(2,2-dichloro-3-(3,5-dichlorophenyl)cyclopropane-1-carboxamido)-N-(2-methyl-4-((4-nitrobenzyl)amino)phenyl)benzamide] | 50 to 100% | A (80–100) | 50 to 100% |
| Nc1c(F)ccc(NC(=O)c2cc(NC(=O)[C@H]3[C@H](c4cc(F)c(Cl)c(C(F)(F)F)c4)C3(Cl)Cl)ccc2Cl)c1F (relative stereo) [F1167, trans-N-(3-Amino-2,4-difluorophenyl)-2-chloro-5-(2,2-dichloro-3-(4-chloro-3-fluoro-5-(trifluoromethyl)phenyl)cyclopropane-1-carboxamido)benzamide] | 50 to 100% | A (80–100) | 50 to 100% |
| O=C(Nc1ccc(F)cc1F)c1cc(NC(=O)[C@H]2[C@H](c3cc(Cl)c(F)c(Cl)c3)C2(Cl)Cl)ccc1Cl (relative stereo) [F1172, trans-2-Chloro-5-(2,2-dichloro-3-(3,5-dichloro-4-fluorophenyl)cyclopropane-1-carboxamido)-N-(2,4-difluorophenyl)benzamide] | 50 to 100% | A (80–100) | 50 to 100% |
| O=C(Nc1ccc(F)cc1F)c1cc(NC(=O)[C@H]2[C@@H](c3cc(Cl)c(F)c(Cl)c3)C2(Cl)Cl)ccc1Cl (relative stereo) [F1173, cis-2-Chloro-5-(2,2-dichloro-3-(3,5-dichloro-4-fluorophenyl)cyclopropane-1-carboxamido)-N-(2,4-difluorophenyl)benzamide] | 50 to 100% | A (80–100) | 50 to 100% |
| Cc1cc(NCc2ccccc2)ccc1NC(=O)c1cc(NC(=O)[C@H]2[C@H](c3cc(Cl)cc(Cl)c3)C2(Cl)Cl)ccc1Cl (relative stereo) [F1176, trans-N-(4-(Benzylamino)-2-methylphenyl)-2-chloro-5-(2,2-dichloro-3-(3,5-dichlorophenyl)cyclopropane-1-carboxamido)benzamide] | 50 to 100% | A (80–100) | 50 to 100% |
| Nc1c(F)ccc(NC(=O)c2cc(NC(=O)[C@H]3[C@H](c4cc(Cl)c(F)c(Cl)c4)C3(Cl)Cl)ccc2Cl)c1F (relative stereo) [F1181, trans-N-(3-Amino-2,4-difluorophenyl)-2-chloro-5-(2,2-dichloro-3-(3,5-dichloro-4-fluorophenyl)cyclopropane-1-carboxamido)benzamide] | 50 to 100% | A (80–100) | 50 to 100% |
| Nc1c(F)ccc(NC(=O)c2cc(NC(=O)[C@H]3[C@@H](c4cc(Cl)c(F)c(Cl)c4)C3(Cl)Cl)ccc2Cl)c1F (relative stereo) [F1182, cis-N-(3-Amino-2,4-difluorophenyl)-2-chloro-5-(2,2-dichloro-3-(3,5-dichloro-4-fluorophenyl)cyclopropane-1-carboxamido)benzamide] | 50 to 100% | A (80–100) | 50 to 100% |
| Cc1cc(NC(=O)[C@H]2[C@H](c3ccc(F)c(Cl)c3)C2(Cl)Cl)cc(C(=O)Nc2ccccc2)c1Cl (relative stereo) [F1183, trans-2-Chloro-5-(2,2-dichloro-3-(3-chloro-4-fluorophenyl)cyclopropane-1-carboxamido)-3-methyl-N-phenylbenzamide] | 50 to 100% | A (80–100) | 50 to 100% |
| Cc1cc(NC(=O)[C@H]2[C@H](c3ccc(F)c(Cl)c3)C2(Cl)Cl)cc(C(=O)Nc2ccc(F)cc2)c1Cl (relative stereo) [F1184, trans-2-Chloro-5-(2,2-dichloro-3-(3-chloro-4-fluorophenyl)cyclopropane-1-carboxamido)-N-(4-fluorophenyl)-3-methylbenzamide] | 50 to 100% | A (80–100) | 50 to 100% |
| CC(=O)Nc1ccc(NC(=O)c2cc(NC(=O)[C@H]3[C@H](c4ccc(F)c(Cl)c4)C3(Cl)Cl)cc(C)c2Cl)cc1 (relative stereo) [F1186, trans-N-(4-Acetamidophenyl)-2-chloro-5-(2,2-dichloro-3-(3-chloro-4-fluorophenyl)cyclopropane-1-carboxamido)-3-methylbenzamide] | 50 to 100% | A (80–100) | 50 to 100% |
| Cc1c(Cl)cc(NC(=O)[C@H]2[C@H](c3ccc(F)c(Cl)c3)C2(Cl)Cl)cc1C(=O)Nc1ccccc1 (relative stereo) [F1188, trans-3-Chloro-5-(2,2-dichloro-3-(3-chloro-4-fluorophenyl)cyclopropane-1-carboxamido)-2-methyl-N-phenylbenzamide] | 50 to 100% | A (80–100) | 50 to 100% |
| Cc1c(Cl)cc(NC(=O)[C@H]2[C@H](c3ccc(F)c(Cl)c3)C2(Cl)Cl)cc1C(=O)Nc1ccc(F)cc1 (relative stereo) [F1189, trans-3-Chloro-5-(2,2-dichloro-3-(3-chloro-4-fluorophenyl)cyclopropane-1-carboxamido)-N-(4-fluorophenyl)-2-methylbenzamide] | 50 to 100% | A (80–100) | 50 to 100% |
| CC(=O)Nc1ccc(NC(=O)c2cc(NC(=O)[C@H]3[C@H](c4ccc(F)c(Cl)c4)C3(Cl)Cl)cc(Cl)c2C)cc1 (relative stereo) [F1191, trans-N-(4-Acetamidophenyl)-3-chloro-5-(2,2-dichloro-3-(3-chloro-4-fluorophenyl)cyclopropane-1-carboxamido)-2-methylbenzamide] | 50 to 100% | A (80–100) | 50 to 100% |
| O=C(Nc1ccccc1)c1cc(NC(=O)[C@H]2[C@H](c3ccc(F)c(Cl)c3)C2(Cl)Cl)cc(C(F)(F)F)c1Cl (relative stereo) [F1212, trans-2-Chloro-5-(2,2-dichloro-3-(3-chloro-4-fluorophenyl)cyclopropane-1-carboxamido)-N-phenyl-3-(trifluoromethyl)benzamide] | 50 to 100% | A (80–100) | 50 to 100% |
| O=C(Nc1ccc(F)cc1)c1cc(NC(=O)[C@H]2[C@H](c3ccc(F)c(Cl)c3)C2(Cl)Cl)cc(C(F)(F)F)c1Cl (relative stereo) [F1214, trans-2-Chloro-5-(2,2-dichloro-3-(3-chloro-4-fluorophenyl)cyclopropane-1-carboxamido)-N-(4-fluorophenyl)-3-(trifluoromethyl)benzamide] | 50 to 100% | A (80–100) | 50 to 100% |
